Data as given in ChEMBL document CHEMBL5576048, “A Second-Generation Oral SARS-CoV-2 Main Protease Inhibitor Clinical Candidate for the Treatment of COVID-19” (J Med Chem, 2024).

System: SARS-CoV-2
Test: Antiviral activity against SARS-CoV-2 Delta variant infected in African green monkey VeroE6/TMPRSS2 cells
Format: functional, organism-based
Conditions: Severe acute respiratory syndrome coronavirus 2, Delta

## CCC(CC)COC(=O)[C@H](C)N[P@](=O)(OC[C@H]1O[C@@](C#N)(c2ccc3c(N)ncnn23)[C@H](O)[C@@H]1O)Oc1ccccc1
  EC50: 161 nM
